First: Cn1nnnc1-c1cccc(CCl)c1
Second: O=c1[nH]c2ccccc2cc1-c1nnn[nH]1
The melting point of the first is lower: 63 to 65 °C for the first, 301 to 303 °C for the second.

First: CCOC(=O)C(C)=Cc1ccc2cc[nH]c2c1
Second: CCOC(=O)C=Cc1ccc(OC)c(OC)c1
The melting point of the first is higher: 88 to 91 °C for the first, 53 to 55 °C for the second.

First: CN1C(=O)C(NC(=O)Nc2cccc(Br)c2)N=C(c2ccccc2)c2ccccc21 (stereo not given)
Second: O=C(Nc1ccccc1Cl)Oc1ccc2c(c1)CCCN2Cc1ccccc1
The melting point of the first is higher: 194 to 196 °C for the first, 130 °C for the second.

`O=C(O)C1(c2ccccc2)CC2CC2C1` (stereo not given) and `COC(=O)C1CC(C#N)(c2ccccc2)CCC1=O` (stereo not given) cannot be ordered by melting point: 78 to 125 °C for the first, 75 to 80 °C for the second.

First: NC(C(=O)O)c1ccc(C(=O)O)cc1SCCc1ccccc1 (stereo not given)
Second: O=c1nc(-c2cccc(SCCCc3ccccc3)n2)sc2ccccc12
The melting point of the first is higher: 227 to 231 °C for the first, 192 to 194 °C for the second.

Compared with `O=S(c1ccc2c(c1)C(=C1CCN(CC3CC3)CC1)c1ccccc1C=C2)C(F)(F)F` (stereo not given), `Cc1ncccc1CN1CCC(=C2c3ccc(Cl)cc3CCc3cccnc32)CC1` is lower in melting point: 146 to 148 °C for the first, 81.4 to 87.2 °C for the second.

First: CN(C=O)c1ccc(C2OC(C)(C)N=C2c2ccccc2)cc1 (stereo not given)
Second: CCOC(=O)NN(C)c1ccc(-c2ccccc2)nn1
The melting point of the first is lower: 104 to 105 °C for the first, 129 to 130 °C for the second.

First: CC(C)c1cccc(-n2cnc(CO)c2)c1
Second: c1cc(Nc2nccc3ccccc23)cc(-n2ccnc2)c1
The melting point of the first is lower: 76 to 77 °C for the first, 164 to 167 °C for the second.

Compared with `CCn1ncc2c(NCc3ccccc3)c3ccc(OC)cc3nc21`, `COc1ccc(-c2nn(Cc3ccccc3)c(=O)c3ccccc23)c(O)c1OC` is lower in melting point: 163 to 164 °C for the first, 155 to 156 °C for the second.

First: CC(C)N1C(=O)C(C)(C)N=C(c2ccccc2Cl)c2cc([N+](=O)[O-])ccc21
Second: CCC1(CC)OC(=O)N(c2cccc(Cl)c2)c2ccccc21
The melting point of the first is higher: 169 to 170 °C for the first, 150 to 151 °C for the second.

First: CCCCNC(=O)NS(=O)(=O)c1ccccc1-c1nn(C)c(=O)o1
Second: CCCCNc1nc(=O)c2c(C)nn3c2n1CC(C)=C3c1ccccc1
The melting point of the first is lower: 110 to 115 °C for the first, greater than 300 °C for the second.

`O=C(O)Cc1ccc2c(c1)C(=O)c1cc3ccccc3cc1C2=O` and `O=C1NC(=O)C(Oc2ccc3ccccc3c2)S1` (stereo not given) cannot be ordered by melting point: greater than 220 °C for the first, 221 to 222 °C for the second.

Compared with `C/C=C/c1ccc2c(NCc3ccc(NC(=O)c4ccc(F)cc4)cc3)nc(N(C)C)nc2c1`, `Cc1ccc(/C=C/c2c(C(C)C)nc(C(C)C)c(CO)c2-c2ccc(F)cc2)cc1` is lower in melting point: 246 °C for the first, 131 to 133 °C for the second.

First: CC12CCC3c4ccc(O)cc4CCC3C1CCC2=CCl (stereo not given)
Second: CC12CCC3c4ccc(C(=O)O)cc4CCC3C1CCC2C(=O)CC1CCCCC1 (stereo not given)
The melting point of the first is lower: 130 to 133 °C for the first, 239 to 241 °C for the second.

First: COc1cc(N)ccc1NNC=O
Second: COC(=O)CS(=O)(=O)c1ccc(OC)c(OC)c1
The melting point of the first is higher: 113 to 116 °C for the first, 81 to 83 °C for the second.

Compared with `CCc1nnc2c(NC)nc3ccccc3n12`, `CCOCC1OC(n2cnc3c(NCc4cccc(I)c4)nc(Cl)nc32)C(O)C1O` (stereo not given) is lower in melting point: 271 to 273 °C for the first, 80 to 82 °C for the second.

First: Cc1ccc([C@@H]2C[C@H]3C=C(c4n[nH]c(-c5ccc(F)cc5)c4-c4ccncc4)CCN3C2)cc1
Second: C#CCn1ncc(-c2ccc(S(C)(=O)=O)cc2)c(-c2ccc(F)cc2)c1=O
The melting point of the first is higher: 222 to 225 °C for the first, 196 to 198 °C for the second.

First: Oc1cc(Br)ccc1C12CC3CC(CC(C3)C1)C2
Second: O=C1N(CC2CCCO2)c2ccccc2C12COc1cc3c(cc12)OCCCO3 (stereo not given)
The melting point of the first is lower: 112 to 114 °C for the first, 134 to 138 °C for the second.

First: O=C(O)Cn1cc(C(=O)O)c(=O)c2cccc(Br)c(=O)c21
Second: COc1ccc(-n2cc(C(=O)O)c(=O)c3cc(F)c(F)c(F)c32)cc1
The melting point of the first is lower: 173 to 175 °C for the first, 252 to 254 °C for the second.

Compared with `CCOC(=O)C(C(=O)OCC)c1cccc(C(=O)c2ccc(Cl)cc2)c1[N+](=O)[O-]`, `O=C(O)Cc1c(C(=O)c2ccc(Cl)cc2)[nH]c2ccc(OC(F)(F)F)cc12` is higher in melting point: 96 to 100 °C for the first, 195 °C for the second.

First: OC1CCN(c2nc(-c3ccccc3)nc3ccccc23)C1 (stereo not given)
Second: COc1ccc(N2CCN(CC(=O)Nc3nc(-c4ccccc4)cs3)CC2)cc1
The melting point of the first is lower: 180 to 182 °C for the first, 186 to 189 °C for the second.

Compared with `CCOCCOc1c(Cl)c(Sc2ccccc2N)c(OCCOCC)c2c1C(=N)NC2=N`, `CCOC(=O)CC(CCCCNC(=O)c1sc(NC(=N)N)nc1C)c1ccccc1` (racemic) is higher in melting point: 114 to 116 °C for the first, 138 °C for the second.

First: O=S1(=O)N=C(NC2CCC2)Nc2cc(Cl)c(Cl)cc21
Second: CC(C)(C)ON=Cc1ncn2c1[C@@H]1CCCN1C(=O)c1c(Cl)cccc1-2
The melting point of the first is higher: 320 to 326 °C for the first, 215 to 216 °C for the second.

First: CCCCCCCCCCSc1ccc2c3c(cccc13)C(=O)N(CC(=O)O)C2=O
Second: CC(=O)N1CCN(CC(=O)Nc2ccc3[nH]c(=O)c4cccc5c4c3c2C5)CC1
The melting point of the first is lower: 137 to 140 °C for the first, 155 to 157 °C for the second.

Compared with `COc1cc(OC)c2c(=O)[nH]c(-c3cc(C)c(OCCN4CCCCCC4)c(C)c3)nc2c1`, `O=c1c2cc(F)c(N3CCCC3)nc2n(-c2ccc(F)cc2F)c(=O)n1O` is lower in melting point: 198 to 199 °C for the first, 189 to 191 °C for the second.

Compared with `O=S(=O)(Nc1cccc(CCOCc2csc(-c3ccc(Cl)cc3)n2)c1)C(F)(F)F`, `C[C@@H](NC(=O)c1nsc(-c2ccc(Cl)cc2)n1)[C@](O)(Cn1cncn1)c1ccc(F)cc1F` is higher in melting point: 114 to 116 °C for the first, 186 to 187 °C for the second.

Compared with `N=C(N)Nc1ncc(CSCCNC2=NS(=O)N=C2N)s1` (stereo not given), `CCN(CC)CCNC(=O)c1cc(Cl)c(N)cc1OCCNC(C)=O` is higher in melting point: 85 to 132 °C for the first, 143 to 145 °C for the second.

First: CC(C)Nc1nccc(C#Cc2ccc(F)cc2)n1
Second: C(#Cc1ccsc1)C1=CCN(Cc2c[nH]c3ncccc23)CC1
The melting point of the first is lower: 128 to 129 °C for the first, 203 to 205 °C for the second.

First: COC(=O)CNc1cccc(C(N)=O)c1
Second: COc1cccc2c1cc(C(=O)O)n2CC(=O)OC(C)(C)C
The melting point of the first is lower: 146 to 147 °C for the first, 222 to 224 °C for the second.

Compared with `O=C(CCC(F)(F)Cl)Nc1ccccn1`, `NC(=O)NCCS(=O)Cc1ccccc1` (stereo not given) is higher in melting point: 64 to 65 °C for the first, 110 °C for the second.

Compared with `CC1(C)NC(=O)N(c2ccc(C#N)c(C(F)(F)F)c2)C1=O`, `CC(CO)Nc1cc(Oc2nn(C)c(C(F)(F)F)c2Cl)ccc1[N+](=O)[O-]` (stereo not given) is lower in melting point: 210 °C for the first, 118 to 120 °C for the second.

First: COc1cccc(CNC(=O)COc2ccn3nc(-c4ccccc4)c(-c4ccc(=O)n(C(C)C)n4)c3c2)c1
Second: Cn1cnc(C(c2ccc(Cl)cc2)c2ccc3c(c2)c(-c2ccccc2)cc(=O)n3C)c1 (stereo not given)
The melting point of the first is higher: 166 to 168 °C for the first, 150 °C for the second.

First: CC(C)Nc1cccnc1N1CCN(C(=O)c2ccc(C(=O)NCCOCCO)cc2)CC1
Second: Cc1cn2cccc(OCc3c(Cl)ccc(S(=O)(=O)N4CCC[C@H]4C(=O)NCCCNC(=O)c4ccc(C#N)cc4)c3Cl)c2n1
The melting point of the first is higher: 116 °C for the first, 100 to 102 °C for the second.

Compared with `c1ccc(Nc2ccc(-c3ccc(N(c4ccccc4)c4ccc(-c5ccccc5)cc4)cc3)cc2)cc1`, `Cc1cccc(-c2nc(N)sc2-c2cccc(-c3ccc(S(C)(=O)=O)cc3)c2)n1` is lower in melting point: 127 °C for the first, 107 to 109 °C for the second.

Compared with `C=CCOc1ccc(C(=O)c2ccccc2)cc1`, `CCOC(=O)C(=NO)c1ccc(Oc2ccccc2)cc1` is higher in melting point: 71 °C for the first, 131 to 132 °C for the second.

First: O=C(NC(Cc1c[nH]c2ccccc12)C(=O)CCc1cc(C(F)(F)F)cc(C(F)(F)F)c1)c1ccccc1 (stereo not given)
Second: O=C1NC(=S)C(c2c[nH]c3ccccc23)=C1c1c[nH]c2ccccc12
The melting point of the first is lower: 119 to 122 °C for the first, 254 to 257 °C for the second.

Compared with `CC(C)(C)OC(=O)Nc1ccc(-c2ccccc2F)cc1NC(=O)CC(=O)c1csc(-n2ccnc2)n1`, `O=C(O)c1cccc(-c2nc(=O)c3ccccc3s2)n1` is higher in melting point: 115 to 130 °C for the first, 260 °C for the second.

First: COC(=O)c1cccc(Cn2c(C(=O)NC(N)=S)cc3cc(C)cc(C)c32)c1
Second: COC(=O)c1ccc2c(c1)C(Oc1ccccn1)C(O)C(C)(C)O2 (stereo not given)
The melting point of the first is lower: 198 to 199 °C for the first, 202 to 204 °C for the second.

Compared with `Cc1nc2c(s1)-c1nc(Nc3ccc(Cl)nc3)ncc1CC2`, `O=c1[nH]nc(Cl)cc1Nc1ccncn1` is higher in melting point: 252 to 253 °C for the first, greater than 300 °C for the second.

First: Cn1cc(C2=C(c3cn(CCCNC(N)=O)c4ccccc34)C(=O)NC2=O)c2ccccc21
Second: COc1ccc(-c2cn(-c3cccc(OCCn4ccnc4)c3)c3ncnc(N)c23)cc1OCc1ccccc1
The melting point of the first is higher: 248 to 250 °C for the first, 150 °C for the second.

First: CC1(CN2CCN(c3cccccc3=O)CC2)NC(=O)NC1=O (stereo not given)
Second: CCC1CCCN(C(=O)C2Cc3ccccc3N2c2ccc(=O)n(C)n2)C1 (stereo not given)
The melting point of the first is higher: 231 to 232 °C for the first, 150 to 154 °C for the second.

First: O=CC(=C(Cl)c1ccc2c(c1)OCO2)c1ccc2c(c1)OCO2
Second: O=C(C=Cc1ccccc1Sc1ccc(Cl)cc1)N1CCCC1=O
The melting point of the first is higher: 167 to 168 °C for the first, 144 to 147 °C for the second.

First: CNC(=O)c1ccc(O[C@H]2CC[C@@H](NC(=O)Nc3ccc(OC(F)(F)F)cc3)CC2)cc1
Second: COc1ccc(C)c(NC(=O)C(C)=Cc2ccccc2)c1
The melting point of the first is higher: 207 to 208 °C for the first, 125 to 126 °C for the second.

Compared with `CC(C)(C)OC(=O)N1COC(=O)[C@@H]1CSCc1ccccc1`, `COc1cc2c(cc1CCNC(=O)Cc1ccccc1)CCC2` is higher in melting point: 63 to 65 °C for the first, 135 °C for the second.

Compared with `COc1cccc(C2Cc3ccccc3C2=O)c1` (stereo not given), `COc1ccccc1Cc1ccc(C(=O)C2=C(O)C(=O)N(C(C)C)C2)o1` is lower in melting point: 144 to 146 °C for the first, 123 to 124 °C for the second.

Compared with `CCCc1ccc2c(C(=O)O)ccc(OC)c2n1`, `CC(=O)c1cc(C)cc(Br)c1O` is lower in melting point: 214 to 217 °C for the first, 81 to 82 °C for the second.

First: C(=NNc1nc(OCCc2ccccn2)nc(N2CCOCC2)n1)c1c[nH]c2ccccc12
Second: O=C(CCN1CCN(c2ccccc2)CC1)c1ccc2c(c1)Cc1cc(C(=O)CCN3CCN(c4ccccc4)CC3)ccc1O2
The melting point of the first is lower: 158 to 161 °C for the first, 206 to 208 °C for the second.

First: CC(CC(=O)O)n1nnnc1S (stereo not given)
Second: CCOC(=O)C(Cl)=Cc1cc(-n2ncc(C(F)(F)F)cc2=O)c(F)cc1Cl
The melting point of the first is higher: 169 to 172 °C for the first, 139 to 140 °C for the second.

Compared with `CCCCCCCCCCN(C[C@H]1CCC[C@H](CN(CCCCCCCCCC)C(=O)Nc2ccc(N(C)C)cc2)C1)C(=O)Nc1ccc(N(C)C)cc1` (relative stereo), `CCCCCCCNCCCCCO` is lower in melting point: 115 to 117 °C for the first, 47 to 48 °C for the second.

First: Cc1cc(SC#N)c(C)c(C)c1O
Second: CC(C)Oc1ccc(-c2nn(Cc3oc4cccc(F)c4c(=O)c3-c3cccc(F)c3)c3ncnc(N)c23)cc1F
The melting point of the first is lower: 100 °C for the first, 156 to 159 °C for the second.

Reference: a melting point compilation (Tetko et al.; mined from patent text by program, amines drawn as free bases though some values may be those of a salt)
